Laboratory results from US7250425B2, “8-aza-bicyclo[3.2.1]octane derivatives and their use as monoamine neurotransmitter re-uptake inhibitors” (priority 2003, dated 2007).
Where a name gives a salt, the structure may show the parent alone.

Experiments:
[1] = target: T1, reuptake of dopamine (DA) in synaptosomes (Rattus norvegicus, UniProt P23977); assay: In vitro inhibition of dopamine reuptake in synaptosomes; type: biochemical
T1 construct: in synaptosomes as described in WO 97/16451; from tissue
Protocol: (§1) A number of compounds were tested for their ability to Inhibit the reuptake of the monoamine neurotransmitters dopamine (DA) noradrenaline(NA) and serotonin (5-HT) in synaptosomes as described in WO 97/16451.
(§2) The test values are given as IC50 (the concentration (μM) of the test substance which inhibits the specific binding of ^3H-DA, ^3H-NA, or 3H-5-HT by 50%).

[2] = target: T2, reuptake of serotonin (5-HT) in synaptosomes (Rattus norvegicus, UniProt P31652); assay: In vitro inhibition of serotonin reuptake in synaptosomes; type: biochemical
T2 construct: in synaptosomes as described in WO 97/16451; from tissue
Protocol: as §1, §2

T1 sequence (P23977 whole entry): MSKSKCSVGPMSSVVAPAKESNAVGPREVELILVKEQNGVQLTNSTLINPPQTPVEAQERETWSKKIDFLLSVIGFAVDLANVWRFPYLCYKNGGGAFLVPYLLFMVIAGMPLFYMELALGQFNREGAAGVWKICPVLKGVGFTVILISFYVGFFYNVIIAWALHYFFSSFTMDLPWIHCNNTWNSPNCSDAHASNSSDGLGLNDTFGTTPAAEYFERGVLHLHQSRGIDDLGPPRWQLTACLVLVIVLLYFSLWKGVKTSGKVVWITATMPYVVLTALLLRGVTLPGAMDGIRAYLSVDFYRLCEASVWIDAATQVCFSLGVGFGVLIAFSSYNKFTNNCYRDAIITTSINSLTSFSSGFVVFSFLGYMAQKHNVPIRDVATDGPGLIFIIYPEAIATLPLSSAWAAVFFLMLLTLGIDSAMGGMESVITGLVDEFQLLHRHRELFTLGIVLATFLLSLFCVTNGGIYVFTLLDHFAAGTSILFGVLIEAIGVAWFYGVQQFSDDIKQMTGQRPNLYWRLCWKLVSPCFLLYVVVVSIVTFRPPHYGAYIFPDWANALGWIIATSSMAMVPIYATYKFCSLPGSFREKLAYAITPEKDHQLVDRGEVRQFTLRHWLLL
T2 sequence (P31652 whole entry): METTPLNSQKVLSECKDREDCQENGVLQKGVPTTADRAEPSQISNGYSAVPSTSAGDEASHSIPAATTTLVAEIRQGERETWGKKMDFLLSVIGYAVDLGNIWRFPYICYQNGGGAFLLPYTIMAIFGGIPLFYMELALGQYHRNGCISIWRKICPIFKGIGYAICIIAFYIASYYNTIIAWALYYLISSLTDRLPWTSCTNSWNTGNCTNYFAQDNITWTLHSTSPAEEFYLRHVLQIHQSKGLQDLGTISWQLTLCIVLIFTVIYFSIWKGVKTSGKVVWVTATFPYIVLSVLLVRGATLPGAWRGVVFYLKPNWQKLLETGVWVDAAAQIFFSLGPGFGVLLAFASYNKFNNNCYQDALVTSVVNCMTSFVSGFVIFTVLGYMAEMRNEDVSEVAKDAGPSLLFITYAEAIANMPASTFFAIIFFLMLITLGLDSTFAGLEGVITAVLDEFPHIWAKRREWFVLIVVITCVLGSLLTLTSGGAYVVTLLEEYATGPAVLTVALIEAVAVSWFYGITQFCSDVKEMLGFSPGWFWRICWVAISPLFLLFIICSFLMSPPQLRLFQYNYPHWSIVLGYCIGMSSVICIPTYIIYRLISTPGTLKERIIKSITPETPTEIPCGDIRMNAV

`CN1C2CCC1[C@H](COc1cccc(Cl)c1Cl)[C@@H](c1cccc(Cl)c1)C2` (stereo partly drawn) [1st compound of method D, (2R,3S)-2-(2,3-Dichlorophenoxymethyl)-8-methyl-3-(3-chlorophenyl)-8-aza-bicyclo[3.2.1]octane fumaric acid salt] gave an IC50 [1] of 62 nM and an IC50 [2] of 0.72 nM.
In the case of `Clc1cccc(C2CC3CCC(N3)C2COc2cccc(Cl)c2Cl)c1` [1st compound of method E, (2R,3S)-2-(2,3-Dichlorophenoxymethyl)-8-H-3-(3-chlorophenyl)-8-aza-bicyclo[3.2.1]octane fumaric acid salt], the IC50 [1] is reported as 100 nM and the IC50 [2] is reported as 6.2 nM.
In the case of `Clc1cccc(C2CC3CCC(N3)C2COc2cccc3ccccc23)c1` [2nd compound of method E, (2R,3S)-2-(1-naphthyloxymethyl)-8-H-3-(3-chlorophenyl)-8-aza-bicyclo[3.2.1]octane fumaric acid salt], the IC50 [1] is reported as 88 nM and the IC50 [2] is reported as 13 nM.
